Results published in ChEMBL document CHEMBL1201862, “PubChem BioAssay data set” (2004).
Active and inactive are the calls of the source.

How the values were obtained:
Caspase-6 = Caspase-6 (Homo sapiens, UniProt P55212); test: inhibition of CASP6 peptide cleavage – biochemical, VEID-R110 fluorescence, cherry-pick, dose response (AID 720632)
cells [1] = test: cells
Major prion protein = Major prion protein (Homo sapiens, UniProt P04156); format: functional, cell-based
[2] = non-specific 3'UTR reporter inhibition in Clone20-Shn3RL – cell-based, Renilla luciferase, cherry-picked, counter-screen for Shn3 inhibitor project, dose response (AID 624133); format: functional
[3] = loss of viability in HepG2 cells – cell-based, CellTiter-Glo, cherry-picked, cytotoxicity control for Shn3 inhibitor project, dose response (AID 624134); format: functional
HEK293 [4] = test: inhibition of NOD1-driven NF-kB reporter – cell-based, luminescence, uHTS, primary screen (AID 1578); format: functional; conditions: Homo sapiens
HEK293 [5] = test: NOD2 signaling inhibitors in MDP-stimulated cells, cell-based, uHTS, luminescence (AID 2001); format: functional; conditions: Homo sapiens
[6] = biological target: COUP transcription factor 2 (Homo sapiens, UniProt P24468); test: Luminescence-based cell-based high throughput dose response assay to identify inhibitors of COUP-TFII (NR2F2).; format: functional;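 further: HEK293 cells transiently cotransfected with COUP-TFII expression vector and reporter; luciferase reporter luminescence driven by COUP-TFII from the pX2-168 reporter plasmid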
[7] = reduction of Shn3 3'UTR-driven luciferase in osteoblasts – cell-based, Clone20 osteoblasts, firefly luciferase, cherry-picked, dose response (AID 624132); format: functional;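 further: firefly luciferase luminescence from reporter carrying the Shn3 3'UTR in osteoblasts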
INS1 = test: INS-1E survival protection against cytokine death – cell-based, luminescence, retest, dose response (AID 449756); format: functional; conditions: Rattus norvegicus;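 further: cell death triggered by IL-1 beta plus TNF-alpha plus IFN-gamma mixture; protective hits raise ATP signal compared with cytokine alone wells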
HEK293 [8] = test: cells; format: functional, cell-based; conditions: Homo sapiens
HEK293 [9] = test: cells; format: functional, cell-based; conditions: Homo sapiens; remark: listed apart in the source
[10] = reduced cellular PGC1a acetyl-lysine signal – cell-based, cherry-picked samples, dose response (AID 720514); format: functional;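 further: potency may reflect raised or lowered acetylation signal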
[11] = biological target: Tyrosyl-DNA phosphodiesterase 2 (Homo sapiens, UniProt O95551); test: potency against TDP2 phosphodiesterase activity – biochemical, epi absorbance, IC50, dose response (AID 743297)
[12] = biological target: T1, Sentrin-specific protease 8 (Homo sapiens, UniProt Q96LD8); format: functional
T1 sequence (Q96LD8 whole entry): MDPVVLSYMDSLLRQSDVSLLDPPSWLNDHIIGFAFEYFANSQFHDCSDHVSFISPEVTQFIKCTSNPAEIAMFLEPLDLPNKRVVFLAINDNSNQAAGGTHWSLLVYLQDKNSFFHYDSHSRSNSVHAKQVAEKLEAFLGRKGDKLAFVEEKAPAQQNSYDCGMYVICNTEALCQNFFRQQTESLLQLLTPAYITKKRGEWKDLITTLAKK

[13] = biological target: T1, Sentrin-specific protease 8; format: functional; remark: listed apart in the source
[14] = viability loss of HPDE-C7K cells – cell-based, fluorescence, HTS, primary screen (AID 431); format: functional; conditions: Homo sapiens
[15] = biological target: Disintegrin and metalloproteinase domain-containing protein 17 (Homo sapiens, UniProt P78536); test: inhibition of ADAM17 substrate cleavage – biochemical, quenched FRET substrate, counter-screen for ADAM10 exosite inhibitor project, dose response (AID 743253)
[16] = HPDE-C7 pancreatic duct cell viability loss – fluorescence, HTS (AID 430); format: functional, cell-based; conditions: Homo sapiens
[17] = potency of ADAM10 substrate cleavage blockers – biochemical, QFRET, dose response (AID 743254);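 further: ADAM10 enzyme with the DM2 quenched FRET peptide as substrate; EDANS fluorescence gain as the protease cuts the substrate; inhibitor potency against ADAM10 proteolytic activity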
cells [18] = conditions: HEK293
[19] = viability loss in HepG2 liver cells – cell-based, ATP luminescence, cherry-pick, set 6, cytotoxicity control, dose response (AID 1053125); format: functional
cells [20] = format: functional, cell-based
[21] = biological target: T2, Trace amine-associated receptor 1 (Homo sapiens, UniProt Q96RJ0); test: Fluorescence-based cell-based high throughput dose response assay to identify agonists of the human trace amine associated receptor 1 (TAAR1).; format: functional
T2 sequence (Q96RJ0 whole entry): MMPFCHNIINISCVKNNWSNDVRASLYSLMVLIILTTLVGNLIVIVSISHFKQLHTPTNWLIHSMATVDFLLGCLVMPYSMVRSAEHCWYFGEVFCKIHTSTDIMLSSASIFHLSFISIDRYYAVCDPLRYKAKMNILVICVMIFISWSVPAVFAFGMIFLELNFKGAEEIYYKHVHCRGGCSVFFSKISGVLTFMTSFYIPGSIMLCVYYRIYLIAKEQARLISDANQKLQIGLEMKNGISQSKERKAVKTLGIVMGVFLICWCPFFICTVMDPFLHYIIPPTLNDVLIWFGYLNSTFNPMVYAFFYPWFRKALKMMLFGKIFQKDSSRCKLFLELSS

[22] = biological target: T2, Trace amine-associated receptor 1; test: Counterscreen for agonists of the human trace amine associated receptor 1 (hTAAR1): Fluorescence-based cell-based high throughput dose response assay to identify hTAAR1 agonist that also desensitize TAAR1 receptor response.; format: functional
cells [23] = format: functional, cell-based; remark: listed apart in the source
[24] = viability loss in MITF-independent A375 cells – cell-based, CellTiter-Glo luminescence, dry powder, set 2, counter-screen for MITF inhibitor project, dose response (AID 624489); format: functional; conditions: A-375;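 further: actives are compounds lowering A375 viability meaning general cytotoxicity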
[25] = cytotoxicity in MITF-independent A375 cells – cell-based, CellTiter-Glo luminescence, dry powder, set 4, counter-screen for MITF inhibitor project, dose response (AID 624364); format: functional; conditions: A-375;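 further: A375 melanoma cells are MITF independent so this is a counter screen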

For `Cc1cccc(NC2=C(NCCO)C(=O)c3ccccc3C2=O)c1`, the AC50 (Caspase-6) was 9.36 µM (active).

With `COc1ccc(-c2nc3ccc(Br)cn3c2Cc2cccc(F)c2)cc1OC` the IC50 (cells [1]) was > 138 µM (inactive) and the IC50 (Major prion protein) was 6.96 µM (active).

With `CCN(CC)S(=O)(=O)c1cccc(NC(=O)CNc2cccc(S(=O)(=O)N3CCCC3)c2)c1` the AC50 [2] was 33.8 µM (active), the AC50 [3] was 1.11 µM (active) and the EC50 (HEK293 [4]) was 0.56 µM (active). For the same compound, the IC50 (HEK293 [5]) was 3.47 µM (active), the IC50 [6] was 3.33 µM (active) and the AC50 [7] was 0.317 µM (active). For the same compound, the AC50 (INS1) was 3.73 µM (active), the IC50 (HEK293 [8]) was 14.6 µM (active) and the IC50 (HEK293 [9]) was 2.55 µM (active).

For `CCN1C(C#N)=C(C#N)N=C(C)CC1(C)C`, the AC50 [10] was 30.5 µM (active).

For `Cc1ccc(C(=O)Nc2c(-c3ccc(Cl)cc3)n[nH]c2O)cc1`, the IC50 [11] was > 128 µM (inactive), the IC50 [12] was 63.5 µM (inactive) and the IC50 [13] was 39.9 µM (active).

For `O=C(O)CCCC(=O)OCCCc1cc2ccccc2c(=O)o1`, the AC50 (Caspase-6) was 1.51 µM (active).

In the case of `C=C(C)COc1ccc(-c2n[nH]cc2-c2ccccc2OC)c(O)c1`, the EC50 [14] was 11.3 µM (active), the IC50 [15] was > 69.5 µM (inactive) and the EC50 [16] was 13.7 µM (active). For the same compound, the IC50 [17] was 10.6 µM (inactive).

For `S=C(NCC1CCCO1)N1CCN(Cc2ccccc2Cl)CC1` (centres undefined), the AC50 (cells [18]) was > 24 µM (inactive) and the AC50 [19] was 38.4 µM (active).

For `Cc1nn(CC(=O)N/N=C/c2cccs2)c(C)c1[N+](=O)[O-]`, the EC50 (cells [20]) was > 29.9 µM (inactive), the EC50 [21] was 2.82 µM (active) and the IC50 [22] was > 29.9 µM (inactive). For the same compound, the IC50 (cells [23]) was > 29.9 µM (inactive).

In the case of `O=C1C(NCCCN2CCOCC2)=C(Nc2ccccc2)C(=O)c2ccccc21`, the AC50 [24] was > 70 µM (inactive) and the AC50 [25] was > 70 µM (inactive).
